In ChEMBL document CHEMBL1139585, “A 3D-QSAR model for CYP2D6 inhibition in the aryloxypropanolamine series” (Bioorg Med Chem Lett, 2005):
pIC50: −log10 of the molar value.

Target: Cytochrome P450 2D6 (Homo sapiens, UniProt P10635)
Experiment: Inhibitory activity against recombinant human Cytochrome P450 2D6 (CYP2D6) after incubated for 45 minutes

Chain of Cytochrome P450 2D6 (P10635 whole entry): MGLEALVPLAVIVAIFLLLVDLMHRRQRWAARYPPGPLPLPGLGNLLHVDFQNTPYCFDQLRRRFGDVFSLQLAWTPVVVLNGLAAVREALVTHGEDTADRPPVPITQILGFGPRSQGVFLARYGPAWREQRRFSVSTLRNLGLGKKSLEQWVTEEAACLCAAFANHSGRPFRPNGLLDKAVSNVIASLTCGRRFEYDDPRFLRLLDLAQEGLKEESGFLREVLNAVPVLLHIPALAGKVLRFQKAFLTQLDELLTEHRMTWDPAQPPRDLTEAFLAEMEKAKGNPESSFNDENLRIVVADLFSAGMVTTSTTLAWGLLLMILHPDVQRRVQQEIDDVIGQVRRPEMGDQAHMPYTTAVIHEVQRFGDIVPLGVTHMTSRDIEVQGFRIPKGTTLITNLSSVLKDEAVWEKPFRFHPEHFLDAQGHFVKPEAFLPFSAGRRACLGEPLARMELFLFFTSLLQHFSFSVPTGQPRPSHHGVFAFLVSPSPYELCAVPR

Row | SMILES | pIC50
1 | CC(C)N[C@@H](C)C(O)COc1cccc2ccccc12 (stereo partly specified) | 5.42
2 | C=CCOc1ccc(OCC(O)CNC(C)C)cc1 (stereo unspecified) | 4.68
3 | CC(C)(C)NCC(O)COc1ccccc1 (stereo unspecified) | 4.55
4 | CC(C)NC[C@@H](O)COc1ccc(-c2ccccc2)c2ccccc12 | 4.68
5 | COCCc1ccc(OCC(O)CNC(C)(C)CSc2ccccc2C)cc1 (stereo unspecified) | 6.55
6 | CC(C)NCC(O)COc1ccc(CCOCC2CC2)cc1 (stereo unspecified) [BETAXOLOL] | 4.18
7 | CC(C)NCC(O)COc1ccccc1 (stereo unspecified) | 4.74
8 | CCc1cccc2cc(CC(O)CNC(C)(C)C)oc12 (stereo unspecified) | 5.32

Next, values leading:

Row | pIC50 | SMILES
9 | 6.38 | COc1ccc2c(CC(C)(C)NCC(O)COc3ccccc3C#N)c[nH]c2c1 (stereo unspecified)
10 | 7.30 | CC(C)(Cc1c[nH]c2ccccc12)NCC(O)COc1c(C#N)ccc2ccccc12 (stereo unspecified)
11 | 7.05 | Cc1ccccc1OCC(O)CNC(C)(C)Cc1cc2ccccc2n1C (stereo unspecified)
12 | 7.30 | CC(C)(Cc1csc2ccccc12)NCC(O)COc1ccccc1C#N (stereo unspecified)
13 | 6.92 | CCc1ccccc1OCC(O)CNC(C)(C)Cc1cc2ccccc2[nH]1 (stereo unspecified)
14 | 7.30 | COc1ccc2[nH]cc(CC(C)(C)NCC(O)COc3ccccc3C#N)c2c1 (stereo unspecified)
15 | 5.08 | COc1ccc2c(OCC(O)CNC(C)C)cccc2c1 (stereo unspecified)
16 | 7.10 | CC(C)(Cc1c[nH]c2ccc(O)cc12)NCC(O)COc1ccccc1C#N (stereo unspecified)
